The numbers were not newly measured in patent publication US20230136789A1, “POLYMER IMPLANTS” (Foundry Therapeutics, Inc., priority 2020, published 2023), which cites them from elsewhere.

Structures are written as SMILES.

Take `CCCCN1CCCCC1C(=O)Nc1c(C)cccc1C` (stereo not shown) [bupivacaine]: the pKa result is recorded as “about 8.0”.
